Literature values in patent publication US11039615B2, “Methods of processing chlorhexidine-containing polymerizable compositions and antimicrobial articles formed thereby” (entrotech life sciences, inc., priority 2014, dated 2021).

Conditions: documented in Ranganathan 1996

[H]/N=C(\N/C(=N/[H])NCCCCCCNC(=N)NC(=N)Nc1ccc(Cl)cc1)Nc1ccc(Cl)cc1 [chlorhexidine]
temperature at which chlorhexidine decomposes to PCA: ≥ 40 °C
